Experimental findings from patent US20220227789A1, “NOVEL INDOLIZINE-2-CARBOXAMIDES ACTIVE AGAINST THE HEPATITIS B VIRUS (HBV)” (AiCuris GmbH & Co. KG, priority 2019, published 2022) are described below.

Where only a bound is given, the exact number is not on record here.

One assay has as its system HBV. The assay can be described thus: HBV replication assay: HBV DNA from the supernatants of HepAD38 cells. To be noted: Hepatitis B virus, 144 h, HBV DNA in supernatant by qPCR at day 6, read-out: Cell Activity. The format is cell-based. The method, then:
Determination of HBV DNA from the Supernatants of HepAD38 Cells
The anti-HBV activity was analysed in the stable transfected cell line HepAD38, which has been described to secrete high levels of HBV virion particles (Ladner et al., 1997). In brief, HepAD38 cells were cultured at 37° C. at 5% CO2 and 95% humidity in 200 μl maintenance medium, which was Dulbecco's modified Eagle's medium/Nutrient Mixture F-12 (Gibco, Karlsruhe), 10% fetal bovine serum (PAN Biotech Aidenbach) supplemented with 50 μg/ml penicillin/streptomycin (Gibco, Karlsruhe), 2 mM L-glutamine (PAN Biotech, Aidenbach), 400 μg/ml G418 (AppliChem, Darmstadt) and 0.3 μg/ml tetracycline. Cells were subcultured once a week in a 1:5 ratio, but were usually not passaged more than ten times. For the assay 60,000 cells were seeded in maintenance medium without any tetracycline into each well of a 96-well plate and treated with serial half-log dilutions of test compound. To minimize edge effects the outer 36 wells of the plate were not used but were filled with assay medium. On each assay plate six wells for the virus control (untreated HepAD38 cells) and six wells for the cell control (HepAD38 cells treated with 0.3 μg/ml tetracycline) were allocated, respectively. In addition, one plate set with reference inhibitors like BAY 41-4109, entecavir, and lamivudine instead of screening compounds were prepared in each experiment. In general, experiments were performed thrice in triplicates. At day 6 HBV DNA from 100 μl filtrated cell culture supernatant (AcroPrep Advance 96 Filter Plate, […] Supor membran, PALL GmbH, Dreieich) was automatically purified on the MagNa Pure LC instrument using the MagNA Pure 96 DNA and Viral NA Small Volume Kit (Roche Diagnostics, Mannheim) according to the instructions of the manufacturer. EC50 values were calculated from relative copy numbers of HBV DNA In brief, 5 μl of the 100 μl eluate containing HBV DNA were subjected to PCR LC480 Probes Master Kit (Roche) together with 1 μM antisense primer […], 0.5 μM sense primer […], 0.3 μM hybprobes […]-FL and LC640-[…]-PH (TIBMolBiol, Berlin) to a final volume of […]. The PCR was performed on the Light Cycler 480 real time system (Roche Diagnostics, Mannheim) using the following protocol: Pre-incubation for 1 min at 95° C., amplification: 40 cycles×(10 sec at 95° C., 50 sec at 60° C., 1 sec at 70° C.), cooling for 10 sec at 40° C. Viral load was quantitated against known standards using HBV plasmid DNA of pCH-9/3091 (Nassal et al., 1990, Cell 63: 1357-1363) and the LightCycler 480 SW 1.5 software (Roche Diagnostics, Mannheim) and EC50 values were calculated using non-linear regression with GraphPad Prism 6 (GraphPad Software Inc., La Jolla, USA).
In general terms: In qPCR the cycle at which signal appears reflects the starting amount.
In the case of `O=C(c1cc2c(Cl)cccn2c1)N1CCc2n[nH]c(C(=O)N3CC(F)(F)CC34CC4)c2C1` [Example 1, 8-chloro-2-(3-{6,6-difluoro-4-azaspiro[2.4]heptane-4-carbonyl}-2H,4H,5H,6H,7H-pyrazolo[4,3-c]pyridine-5-carbonyl)indolizine], the EC50 was in the range of 1 to 10 µM.
Still for that read-out and setting: next, `O=C(c1cc2c(F)cc(F)cn2c1)N1CCc2n[nH]c(C(=O)N3CC(F)(F)CC34CC4)c2C1` [Example 2, 6,8-difluoro-2-(3-{6,6-difluoro-4-azaspiro[2.4]heptane-4-carbonyl}-2H,4H,5H,6H,7H-pyrazolo[4,3-c]pyridine-5-carbonyl)indolizine]: 1 to 10 µM; `CC1Cc2[nH]nc(-c3cscn3)c2CN1C(=O)c1cn2ccccc2c1Br` (stereo not shown) [Example 11, 1-bromo-2-[6-methyl-3-(1,3-thiazol-4-yl)-1H,4H,5H,6H,7H-pyrazolo[4,3-c]pyridine-5-carbonyl]indolizine]: 1 to 10 µM.

In the next assay the target is T1, HBV core protein (C-terminal truncated, 149 aa assembly domain) (Hepatitis B virus genotype D subtype adw, UniProt P03147, C107A/C48A/C61A).
T1 construct: The C-terminal truncated core protein containing 149 amino acids of the N-terminal assembly domain; made in house; host or cells: E. coli BL21 (DE3) Rosetta2, plasmid pET21b
T1 sequence (P03147 1-150, looked up, stated change not applied): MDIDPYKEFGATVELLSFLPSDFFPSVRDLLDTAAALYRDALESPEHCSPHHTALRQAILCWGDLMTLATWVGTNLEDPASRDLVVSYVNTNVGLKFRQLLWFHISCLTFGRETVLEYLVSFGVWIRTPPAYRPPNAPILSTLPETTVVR
The assay can be described thus: Biochemical capsid assembly assay (fluorescence quenching).
Conditions: not given
The method, then:
Biochemical Capsid Assembly Assay
The screening for assembly effector activity was done based on a fluorescence quenching assay published by Zlotnick et al. (2007). The C-terminal truncated core protein containing 149 amino acids of the N-terminal assembly domain fused to a unique cysteine residue at position 150 and was expressed in E. coli using the pET expression system (Merck Chemicals, Darmstadt). Purification of core dimer protein was performed using a sequence of size exclusion chromatography steps. In brief, the cell pellet from 1 L BL21 (DE3) Rosetta2 culture expressing the coding sequence of core protein cloned NdeI/XhoI into expression plasmid pET21b was treated for 1 h on ice with a native lysis buffer (Qproteome Bacterial Protein Prep Kit; Qiagen, Hilden). After a centrifugation step the supernatant was precipitated during 2 h stirring on ice with 0.23 g/ml of solid ammonium sulfate. Following further centrifugation the resulting pellet was resolved in buffer A (100 mM Tris, pH 7.5; 100 mM NaCl; 2 mM DTT) and was subsequently loaded onto a buffer A equilibrated CaptoCore 700 column (GE HealthCare, Frankfurt). The column flow through containing the assembled HBV capsid was dialyzed against buffer N (50 mM NaHCO3 pH 9.6; 5 mM DTT) before urea was added to a final concentration of 3M to dissociate the capsid into core dimers for 1.5 h on ice. The protein solution was then loaded onto a 1 L Sephacryl 5300 column. After elution with buffer N core dimer containing fractions were identified by SDS-PAGE and subsequently pooled and dialyzed against 50 mM HEPES pH 7.5; 5 mM DTT. To improve the assembly capacity of the purified core dimers a second round of assembly and disassembly starting with the addition of 5 M NaCl and including the size exclusion chromatography steps described above was performed. From the last chromatography step core dimer containing fractions were pooled and stored in aliquots at concentrations between 1.5 to 2.0 mg/ml at −80° C.
Immediately before labelling the core protein was reduced by adding freshly prepared DTT in a final concentration of 20 mM. After […] on ice storage buffer and DTT was removed using a Sephadex G-25 column (GE HealthCare, Frankfurt) and 50 mM HEPES, pH 7.5. For labelling 1.6 mg/ml core protein was incubated at 4° C. and darkness overnight with BODIPY-FL maleimide (Invitrogen, Karlsruhe) in a final concentration of 1 mM. After labelling the free dye was removed by an additional desalting step using a Sephadex G-25 column. Labelled core dimers were stored in aliquots at 4° C. In the dimeric state the fluorescence signal of the labelled core protein is high and is quenched during the assembly of the core dimers to high molecular capsid structures. The screening assay was performed in black 384 well microtiter plates in a total assay volume of 10 μl using 50 mM HEPES pH 7.5 and 1.0 to 2.0 μM labelled core protein. Each screening compound was added in 8 different concentrations using a 0.5 log-unit serial dilution starting at a final concentration of 100 μM, 31.6 μM or 10 μM, In any case the DMSO concentration over the entire microtiter plate was 0.5%. The assembly reaction was started by the injection of NaCl to a final concentration of […] which induces the assembly process to approximately 25% of the maximal quenched signal. 6 min after starting the reaction the fluorescence signal was measured using a Clariostar plate reader (BMG Labtech, Ortenberg) with an excitation of 477 nm and an emission of 525 nm. As 100% and 0% assembly control HEPES buffer containing 2.5 M and 0 M NaCl was used. Experiments were performed thrice in triplicates. EC50 values were calculated by non-linear regression analysis using the Graph Pad Prism 6 software (GraphPad Software, La Jolla, USA).
`O=C(c1cc2ccccn2c1)N1CCc2onc(-c3cscn3)c2C1` [Example 36, 2-[3-(1,3-thiazol-4-yl)-4H,5H,6H,7H-[1,2]oxazolo[4,5-c]pyridine-5-carbonyl]indolizine] showed an IC50 of less than 5 µM.

Still in this assay, the particulars now being: BODIPY-FL labelled core protein, assembly started with NaCl, read after 6 min; read-out: Assembly Activity.
With `O=C(c1cc2ccccn2c1)N1CCc2[nH]nc(-n3ccnn3)c2C1` [Example 28, 2-[3-(1H-1,2,3-triazol-1-yl)-1H,4H,5H,6H,7H-pyrazolo[4,3-c]pyridine-5-carbonyl]indolizine], the IC50 is less than 100 µM.
Regarding `O=C(NCC1CCCO1)c1[nH]nc2c1CN(C(=O)c1cc3ccccn3c1)CC2` (stereo not shown) [Example 29, 5-(indolizine-2-carbonyl)-N-[(oxolan-2-yl)methyl]-2H,4H,5H,6H,7H-pyrazolo[4,3-c]pyridine-3-carboxamide], the IC50 was less than 100 µM.
For `O=C(NCC1CCCOC1)c1[nH]nc2c1CN(C(=O)c1cc3ccccn3c1)CC2` (stereo not shown) [Example 30, 5-(indolizine-2-carbonyl)-N-[(oxan-3-yl)methyl]-2H,4H,5H,6H,7H-pyrazolo[4,3-c]pyridine-3-carboxamide], the IC50 is less than 100 µM.
Same read-out and setting: next, `O=C(c1cc2ccccn2c1)N1CCc2[nH]nc(-c3ccon3)c2C1` [Example 31, 2-[3-(1,2-oxazol-3-yl)-1H,4H,5H,6H,7H-pyrazolo[4,3-c]pyridine-5-carbonyl]indolizine]: less than 5 µM; `O=C(NC1(C(F)(F)F)CC1)c1[nH]nc2c1CN(C(=O)c1cc3ccccn3c1)CC2` [Example 33, 5-(indolizine-2-carbonyl)-N-[1-(trifluoromethyl)cyclopropyl]-2H,4H,5H,6H,7H-pyrazolo[4,3-c]pyridine-3-carboxamide]: less than 100 µM.
On to `O=C(c1cc2ccccn2c1)N1CCc2noc(-c3cscn3)c2C1` [Example 34, 2-[3-(1,3-thiazol-4-yl)-4H,5H,6H,7H-[1,2]oxazolo[4,3-c]pyridine-5-carbonyl]indolizine], for which the IC50 was less than 5 µM.
Still for that read-out and setting: next, `CC(C)(NC(=O)c1[nH]nc2c1CN(C(=O)c1cc3ccccn3c1)CC2)C(F)(F)F` [Example 35, 5-(indolizine-2-carbonyl)-N-(1,1,1-trifluoro-2-methylpropan-2-yl)-2H,4H,5H,6H,7H-pyrazolo[4,3-c]pyridine-3-carboxamide]: less than 100 µM; `O=C(c1cc2ccccn2c1)N1CCc2[nH]nc(-c3cscn3)c2C1` [Example 37, 2-[3-(1,3-thiazol-4-yl)-1H,4H,5H,6H,7H-pyrazolo[4,3-c]pyridine-5-carbonyl]indolizine]: less than 5 µM; `CC(NC(=O)c1[nH]nc2c1CN(C(=O)c1cc3ccccn3c1)CC2)C1COC1` (stereo not shown) [Example 41, 5-(indolizine-2-carbonyl)-N-[1-(oxetan-3-yl)ethyl]-2H,4H,5H,6H,7H-pyrazolo[4,3-c]pyridine-3-carboxamide]: less than 100 µM.
For the compound `O=C(c1cc2ccccn2c1)N1CCn2ncc(-c3cscn3)c2C1` [Example 43, 2-[3-(1,3-thiazol-4-yl)-4H,5H,6H,7H-pyrazolo[1,5-a]pyrazine-5-carbonyl]indolizine], the IC50 was less than 5 µM.
On the same count and under the same terms, next, `CC1Cc2[nH]nc(-c3cscn3)c2CN1C(=O)c1cc2c(F)cc(F)cn2c1` (stereo not shown) [Example 44, 6,8-difluoro-2-[6-methyl-3-(1,3-thiazol-4-yl)-1H,4H,5H,6H,7H-pyrazolo[4,3-c]pyridine-5-carbonyl]indolizine]: less than 5 µM; `C[C@H](NC(=O)c1[nH]nc2c1CN(C(=O)c1cc3ccccn3c1)CC2)C(F)(F)F` [Example 45, 5-(indolizine-2-carbonyl)-N-[(2S)-1,1,1-trifluoropropan-2-yl]-2H,4H,5H,6H,7H-pyrazolo[4,3-c]pyridine-3-carboxamide]: less than 100 µM.
On the same count and under the same terms, next, `C[C@@H](NC(=O)c1[nH]nc2c1CN(C(=O)c1cc3ccccn3c1)CC2)C(F)(F)F` [Example 46, 5-(indolizine-2-carbonyl)-N-[(2R)-1,1,1-trifluoropropan-2-yl]-2H,4H,5H,6H,7H-pyrazolo[4,3-c]pyridine-3-carboxamide]: less than 100 µM.
Still for that read-out and setting: next, `CC1Cc2n[nH]c(C(=O)NC(C)C(F)(F)F)c2CN1C(=O)c1cc2c(Cl)cccn2c1` (stereo not shown) [Example 47, 5-(8-chloroindolizine-2-carbonyl)-6-methyl-N-(1,1,1-trifluoropropan-2-yl)-2H,4H,5H,6H,7H-pyrazolo[4,3-c]pyridine-3-carboxamide]: less than 100 µM; `CC1Cc2n[nH]c(C(=O)NC(C)C(F)(F)F)c2CN1C(=O)c1cc2ccccn2c1` (stereo not shown) [Example 48, 5-(indolizine-2-carbonyl)-6-methyl-N-(1,1,1-trifluoropropan-2-yl)-2H,4H,5H,6H,7H-pyrazolo[4,3-c]pyridine-3-carboxamide]: less than 100 µM.
